Counter-ions that a name gives are not always drawn.
What follows are compounds tested against T1, recombinant JAK2 (Homo sapiens, UniProt O60674) (assay: IC50 value determinations for Jak2 kinase, luminescence-based kinase assay (Kinase-Glo)). Conditions: Table 1.
T1 construct: purchased Upstate Cell Signaling Solutions
Type: biochemical

T1 sequence (O60674 808-1132 limits assumed): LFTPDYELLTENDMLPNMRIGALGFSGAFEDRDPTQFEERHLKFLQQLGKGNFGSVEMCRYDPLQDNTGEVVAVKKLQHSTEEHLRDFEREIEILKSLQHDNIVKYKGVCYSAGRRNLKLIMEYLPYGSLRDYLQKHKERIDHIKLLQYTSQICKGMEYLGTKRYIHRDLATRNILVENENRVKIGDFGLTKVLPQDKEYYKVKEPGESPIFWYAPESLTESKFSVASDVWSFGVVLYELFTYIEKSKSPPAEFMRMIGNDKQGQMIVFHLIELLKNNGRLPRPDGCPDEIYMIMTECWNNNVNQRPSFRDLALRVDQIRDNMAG

| IC50 | SMILES |
| --- | --- |
| 3.84 nM | Cc1cnc(Nc2ccc(N3CCN(C)CC3)cc2)nc1Nc1ccc(C)c2[nH]ccc12 [5-methyl-N4-(7-methyl-1H-indol-4-yl)-N2-(4-(4-methylpiperazin-1-yl)phenyl)pyrimidine-2,4-diamine Hydrochloride] |
| 113 nM | Cc1cnc(Nc2ccc(OC3CCNCC3)cc2)nc1Nc1cccc(C(=O)N2CCCC2)c1 [(3-{5-Methyl-2-[4-(piperidin-4-yloxy)-phenylamino]-pyrimidin-4-ylamino}-phenyl)-pyrrolidin-1-yl-methanone] |
| 151 nM | Cc1cnc(Nc2ccc(-n3cccn3)cc2)nc1Nc1cccc(C(C)(C)C)c1 [N2-(4-(1H-pyrazol-1-yl)phenyl)-N4-(3-tert-butylphenyl)-5-methylpyrimidine-2,4-diamine] |
| 20.7 nM | Cc1cnc(Nc2ccc(OCCN3CCCC3)cc2)nc1Nc1cccc(OC(F)(F)F)c1 [N2-(4-(2-(pyrrolidin-1-yl)ethoxy)phenyl)-5-methyl-N4-(3-(trifluoromethoxy)phenyl) pyrimidine-2,4-diamine] |
| 61.1 nM | Cc1cnc(Nc2ccc(OCCN3CCCC3)cc2)nc1Nc1cccc([N+](=O)[O-])c1 [N2-(4-(2-(pyrrolidin-1-yl)ethoxy)phenyl)-5-methyl-N4-(3-nitrophenyl)pyrimidine-2,4-diamine Hydrochloride] |
| 6.98 nM | Cc1cnc(Nc2ccc(OCCN3CCCC3)cc2)nc1Nc1ccc(C)c2[nH]ccc12 [N2-(4-(2-(pyrrolidin-1-yl)ethoxy)phenyl)-5-methyl-N4-(7-methyl-1H-indol-4-yl)pyrimidine-2,4-diamine Hydrochloride] |
| 20 nM | Cc1cnc(Nc2ccc(OCCN3CCCC3)cc2)nc1Nc1cccc2ccccc12 [N2-(4-(2-(pyrrolidin-1-yl)ethoxy)phenyl)-5-methyl-N4-(naphthalen-1-yl)pyrimidine-2,4-diamine Hydrochloride] |
| 35.7 nM | Cc1ccc(Nc2nc(Nc3ccc(OCCN4CCCC4)cc3)ncc2C)cc1 [N2-(4-(2-(pyrrolidin-1-yl)ethoxy)phenyl)-5-methyl-N4-p-tolylpyrimidine-2,4-diamine Hydrochloride] |
| 19.2 nM | Cc1cnc(Nc2ccc(OCCN3CCCC3)cc2)nc1Nc1cccc2[nH]ccc12 [N2-(4-(2-(pyrrolidin-1-yl)ethoxy)phenyl)-N4-(1H-indol-4-yl)-5-methylpyrimidine-2,4-diamine Hydrochloride] |
| 17.6 nM | Cc1cnc(Nc2ccc(OCCN3CCCC3)cc2)nc1Nc1cccc(C(F)(F)F)c1 [N2-(4-(2-(pyrrolidin-1-yl)ethoxy)phenyl)-N4-(3-(trifluoromethyl)phenyl)-5-methylpyrimidine-2,4-diamine] |
| 6.71 nM | Cc1cnc(Nc2ccc(OCCN3CCCC3)cc2)nc1Nc1cccc(C(C)(C)C)c1 [N2-(4-(2-(pyrrolidin-1-yl)ethoxy)phenyl)-N4-(3-tert-butylphenyl)-5-methylpyrimidine-2,4-diamine Hydrochloride] |
| 153 nM | Cc1cnc(Nc2nc(Nc3ccc(OCCN4CCCC4)cc3)ncc2C)nc1Nc1cccc(C(C)(C)C)c1 [N2-(4-(2-(pyrrolidin-1-yl)ethoxy)phenyl)-N4-(4-(3-tert-butylphenylamino)-5-methylpyrimidin-2-yl)-5-methylpyrimidine-2,4-diamine Hydrochloride] |
| 39.8 nM | Cc1cnc(Nc2ccc(OCCN3CCCC3)cc2)nc1Nc1ccc(C(F)(F)F)cc1 [N2-(4-(2-(pyrrolidin-1-yl)ethoxy)phenyl)-N4-(4-(trifluoromethyl)phenyl)-5-methylpyrimidine-2,4-diamine hydrochloride] |
| 23.4 nM | Cc1cnc(Nc2ccc(OCCN3CCCC3)cc2)nc1Nc1ccc(Cl)c(C(F)(F)F)c1 [N2-(4-(2-(pyrrolidin-1-yl)ethoxy)phenyl)-N4-(4-chloro-3-(trifluoromethyl)phenyl)-5-methylpyrimidine-2,4-diamine] |
| 12.4 nM | Cc1cc(Nc2nc(Nc3ccc(OCCN4CCCC4)cc3)ncc2C)ccc1Cl [N2-(4-(2-(pyrrolidin-1-yl)ethoxy)phenyl)-N4-(4-chloro-3-methylphenyl)-5-methylpyrimidine-2,4-diamine Hydrochloride] |
| 1.16 nM | Cc1cnc(Nc2ccc(OCCN3CCCC3)cc2)nc1Nc1ccc(Cl)c2[nH]ccc12 [N2-(4-(2-(pyrrolidin-1-yl)ethoxy)phenyl)-N4-(7-chloro-1H-indol-4-yl)-5-methylpyrimidine-2,4-diamine Hydrochloride] |
| 9.28 nM | Cc1cnc(Nc2ccc(OCCN3CCCC3)cc2)nc1Nc1ccc(F)c2[nH]ccc12 [N2-(4-(2-(pyrrolidin-1-yl)ethoxy)phenyl)-N4-(7-fluoro-1H-indol-4-yl)-5-methylpyrimidine-2,4-diamine Hydrochloride] |

| IC50 | SMILES |
| --- | --- |
| 1050 nM | Cc1cnc(Nc2ccc(OCCN3CCCC3)cc2)nc1Nc1nccc2ccccc12 [N2-(4-(2-(pyrrolidin-1-yl)ethoxy)phenyl)-N4-(isoquinolin-1-yl)-5-methylpyrimidine-2,4-diamine] |
| 7.42 nM | Cc1cnc(Nc2ccc(CN3CCOCC3)cc2)nc1Nc1cccc2[nH]ccc12 [N4-(1H-Indol-4-yl)-5-methyl-N2-(4-morpholin-4-ylmethyl-phenyl)-pyrimidine-2,4-diamine] |
| 10.1 nM | Cc1cnc(Nc2ccc(CN3CCNCC3)cc2)nc1Nc1cccc2[nH]ccc12 [N4-(1H-Indol-4-yl)-5-methyl-N2-(4-piperazin-1-ylmethyl-phenyl)-pynmidine-2,4-diamine] |
| 9.53 nM | Cc1cnc(Nc2ccc(N3CCN(C)CC3)cc2)nc1Nc1cccc2[nH]ccc12 [N4-(1H-indol-4-yl)-5-methyl-N2-(4-(4-methylpiperazin-1-yl)phenyl)pyrimidine-2,4-diamine Hydrochloride] |
| 4.27 nM | Cc1cnc(Nc2ccc(OC3CCNCC3)cc2)nc1Nc1cccc2[nH]ccc12 [N4-(1H-indol-4-yl)-5-methyl-N2-(4-(piperidin-4-yloxy)phenyl)pyrimidine-2,4-diamine trifluoroacetic acid salt] |
| 25.7 nM | Cc1cnc(Nc2ccc(OCCN3CCCC3)cc2)nc1Nc1ccc(Cl)c(Cl)c1 [N4-(3,4-Dichloro-phenyl)-5-methyl-N2-[4-(2-pyrrolidin-1-yl-ethoxy)-phenyl]-pyrimidine-2,4-diamine] |
| 137 nM | COc1cc(Nc2nc(Nc3ccc(OC4CCNCC4)cc3)ncc2C)cc(OC)c1 [N4-(3,5-dimethoxyphenyl)-5-methyl-N2-(4-(piperidin-4-yloxy)phenyl)pyrimidine-2,4-diamine trifluoroacetate] |
| 33.8 nM | Cc1cnc(Nc2ccc(N3CCN(C)CC3)cc2)nc1Nc1cccc(-n2cccc2)c1 [N4-(3-(1H-pyrrol-1-yl)phenyl)-5-methyl-N2-(4-(4-methylpiperazin-1-yl)phenyl)pyrimidine-2,4-diamine] |
| 87.1 nM | Cc1cnc(Nc2ccc(N3CCN(C)CC3)cc2)nc1Nc1cccc(C(F)(F)F)c1C [N4-(3-(trifluoromethyl)-2-methylphenyl)-5-methyl-N2-(4-(4-methylpiperazin-1-yl)phenyl)pyrimidine-2,4-diamine hydrochloride] |
| 20.8 nM | Cc1cnc(Nc2ccc(OCCN3CCCC3)cc2)nc1Nc1cccc(Cl)c1 [N4-(3-Chloro-phenyl)-5-methyl-N2-[4-(2-pyrrolidin-1-yl-ethoxy)-phenyl]-pyrimidine-2,4-diamine] |
| 19.7 nM | Cc1cnc(Nc2ccc(OCCN3CCCC3)cc2)nc1Nc1cccc(N(C)C)c1 [N4-(3-Dimethylamino-phenyl)-5-methyl-N2-[4-(2-pyrrolidin-1-yl-ethoxy)-phenyl]-pyrimidine-2,4-diamine] |
| 160 nM | Cc1ccc(Nc2nc(Nc3ccc(N4CCN(C)CC4)cc3)ncc2C)cc1S(C)(=O)=O [N4-(3-Methanesulfonyl-4-methyl-phenyl)-5-methyl-N2-[4-(4-methyl-piperazin-1-yl)-phenyl]-pyrimidine-2,4-diamine] |
| 371 nM | COc1cccc(Nc2ccnc(Nc3ccc(OCCN4CCCC4)cc3)n2)c1C [N4-(3-Methoxy-2-methyl-phenyl)-N2-[4-(2-pyrrolidin-1-yl-ethoxy)-phenyl]-pyrimidine-2,4-diamine] |
| 19.9 nM | Cc1cnc(Nc2ccc(C(C)N3CCOCC3)cc2)nc1Nc1cccc(C(C)(C)C)c1 (stereo not shown) [N4-(3-tert-butylphenyl)-5-methyl-N2-(4-(1-morpholinoethyl)-phenyl)pyrimidine-2,4-diamine Hydrochloride] |
| 38.4 nM | Cc1cnc(Nc2ccc(-n3ccnc3C)cc2)nc1Nc1cccc(C(C)(C)C)c1 [N4-(3-tert-butylphenyl)-5-methyl-N2-(4-(2-methyl-1H-imidazol-1-yl)phenyl)pyrimidine-2,4-diamine Hydrochloride] |
| 4.7 nM | Cc1cnc(Nc2ccc(N3CCN(C)CC3)cc2)nc1Nc1cccc(C(C)(C)C)c1 [N4-(3-tert-butylphenyl)-5-methyl-N2-(4-(4-methylpiperazin-1-yl)phenyl)pyrimidine-2,4-diamine Hydrochloride] |

Same assay, conditions: Table 5, Initial Screening Hits for JAK2

| IC50 | SMILES |
| --- | --- |
| 6240 nM | COc1cc(Nc2nc(Nc3ccc(OCCN4CCCC4)cc3)ncc2C#N)c(Cl)cc1Cl [Compound 1] |
| 10500 nM | COc1cc(Nc2nc(Nc3cccc(OCCN4CCCC4)c3)ncc2C#N)c(Cl)cc1Cl [Compound 2] |
| 2040 nM | COc1cc(Nc2nc(Nc3cccc(OCCN4CCCC4)c3)ncc2C)c(Cl)cc1Cl [Compound 3] |

Same assay, conditions: Table 6

| IC50 | SMILES |
| --- | --- |
| 105 nM | COc1cccc(Nc2ccnc(Nc3ccc(OCCN4CCCC4)cc3)n2)c1 [Compound 4] |
| 53 nM | COc1cccc(Nc2nc(Nc3ccc(OCCN4CCCC4)cc3)ncc2C)c1 [Compound 5] |
| 8 nM | COc1cc(Nc2nc(Nc3ccc(OCCN4CCCC4)cc3)ncc2C)ccc1Cl [Compound 6] |

Same assay, conditions: Table 7, SAR for the P3 region

| IC50 | SMILES |
| --- | --- |
| 10500 nM | COc1cc(Nc2nc(Nc3cccc(OCCN4CCCC4)c3)ncc2C#N)c(Cl)cc1Cl [Compound 2] |
| 2040 nM | COc1cc(Nc2nc(Nc3cccc(OCCN4CCCC4)c3)ncc2C)c(Cl)cc1Cl [Compound 3] |
| 105 nM | COc1cccc(Nc2ccnc(Nc3ccc(OCCN4CCCC4)cc3)n2)c1 [Compound 4] |
| 53 nM | COc1cccc(Nc2nc(Nc3ccc(OCCN4CCCC4)cc3)ncc2C)c1 [Compound 5] |
| 8 nM | COc1cc(Nc2nc(Nc3ccc(OCCN4CCCC4)cc3)ncc2C)ccc1Cl [Compound 6] |
| 46 nM | COc1ccc(Nc2ncc(C)c(Nc3cccc4c3OCO4)n2)cc1 [Compound 7] |
| > 10000 nM | Cc1nc(Nc2ccccc2)nc(Nc2cccc3c2OCO3)c1C [Compound 8] |

Same assay, conditions: Table 8, SAR of the P4 region

| IC50 | SMILES |
| --- | --- |
| 105 nM | COc1cccc(Nc2ccnc(Nc3ccc(OCCN4CCCC4)cc3)n2)c1 [Compound 4] |
| 12 nM | Cc1cnc(Nc2ccc(N3CCN(C)CC3)cc2)nc1Nc1cc(C)c(Cl)c(C)c1 [Compound 38] |

Same assay, conditions: Table 9, SAR of the P2/P1 region

| IC50 | SMILES |
| --- | --- |
| 707 nM | Cc1cnc(Nc2cccc(S(=O)(=O)NC(C)(C)C)c2)nc1Nc1cccc(S(=O)(=O)NC(C)(C)C)c1 [Compound 58] |

Source: US8604042B2, “Bi-aryl meta-pyrimidine inhibitors of kinases” (TargeGen, Inc., priority 2005, dated 2013)
